Patent US20040138156A1, “Therapeutic regulation of deoxyribonuclease-1-like-3 activity” (priority 2002, published 2004)
“Also recorded” adds a separate entry of the source.

How the values were obtained:
D1L3 = details: cited from earlier work
bone marrow macrophages = test: Induction of D1L3 in cultured bone marrow macrophages (anti-D1L3 immunoblot, RDA, zymogram); format: cell-based, C57BL mice; details: 100 U/ml for the interferons
Method: FIG. 22. Normal and induced expression of D1L3 in murine macrophages. […] In anti-D1L3 blots of cell lysates, the protein is seen both as a ^˜34 kDa uncleaved molecule and a ^˜28 kDa cleaved molecule. […] Cells were plated on serum-coated tissue culture dishes and incubated overnight, the next morning, non-adherent cells (N) were rinsed vigorously with PBS 1×, and both adeherent (A) and non-adherent cells (N) from C57BL, NZB/W, BXSB, and MRL were lysed and immunoblotted with anti-D1L3. While the ^˜34 kDa size band consistent with uncleaved D1L3 is present in both adherent and non-adherent, the cleaved form (^˜28 kDa) is present almost exclusively in the adherent population of presumed macrophages. Also noticable are the higher levels of expression of D1L3 in the 3 latter lupus strains. Panel B: Untreated bone marrow macrophages from NZB/WF1 mice have a much higher baseline expression expression of D1L3 than C57BL macrophages.
Induction is present in macrophages from both strain though the absolute level of induction appears greater in C57BL than in the SLE-prone NZB/W F1 strain. NZB/W protein loads in Ifn-γ-negative lane is slightly underloaded relative to actin. Panel C: Bone marrow macrophages isolated from bone marrow (via adherence) from MRL and C57BL mice, and cultured for 2 days in vitro, were induced by Ifn-γ. […] No induction of D1L3, RDA-DNASE, or zymographic DNASE activity is evident upon tratement with 100 U/ml of Ifn-alpha. […] Panel D: Bone marrow macrophages from C57BL and MRL mice cultured for 7 days in the presence of GM-CSF were induced with Ifn-γ, again showing the higher baseline levels of 28 kDa enzyme in the lupus prone strain, and in C57BL showing induction of levels aftern Ifn-γ. […]
(§1) Assays of Murine Cells. […] Splenocytes were counted using a hemochromocytometer, and plated at 2 million cells/ml on plastic 6-well Falcon tissue culture dishes (Becton Dickinson) in RPMI with 10% FCS. […]

[1] = tested on: bone marrow-derived macrophages; test: BT activity of media conditioned by Ifn-γ treated bone marrow-derived macrophages, overlaid on HeLa cells; format: cell-based, C57BL mice; details: 100 U/ml; b134: 1000 U/ml vs 100U/ml
Text: FIG. 29. Media conditioned by Ifn-γ treated macrophages from C57BI, but not NZB/W F1 mice is able to confer an in vitro barrier to liposomal gene transduction (BT). Panel A: Media conditioned by interferon-g (Ifn-γ) treated bone marrow-derived macrophages from C57 BL confers a barrier to liposomal transfection to HeLa. […] Panel B: As interferon dose increased, the ability by C57BL macrophages to confer a barrier to transfection increased. In the absence of Ifn-γ, macrophages confer a weaker barrier. Panel C: Interferon gamma induces both DNASE activity by RDA and a DNASE band compatible with DNASE1L3 at 28 kD, plus induces a BT activity. Samples were from macrophages from two C57BL mice (B1 and B2). In the left register is pre- and post interferon RDAs, in the middle register, pre and post interferon, and in the right register are the BT assays (GFP immunoblots of tranfected HeLa cells) on HeLa cells, including HeLa cells treated directly with interferon gamma for 48 hours. Media conditioned for 48 hours. Panel D: BT activity in macrophage-conditioned media from NZB/W F1 (NZ) or C57BL (BL). […]
as §1

HeLa cells = test: BT assay: liposomal N1-eGFP transfection of HeLa cells in DNASE-conditioned media, GFP immunoblot; format: cell-based; details: equivalent doses of Ifn-γ, no macrophages
Method: In the main assay, an eukaryotic marker such as green fluorescent protein (GFP) expression plasmid complexed with a lipid reagent is transfected into HeLa cells incubated in control media, D1L3-conditioned media, or D1-conditioned media (FIG. 4). The assay is not limited to the use of GFP as a marker, but could use any of many expressed biomarkers encoded by nucleotides that can be assayed either immunochemistry, fluorescent detection, or enzymatic detectection, and these include but are not circumscribed to luciferase, chloramphenicol acetyl-transferase, antibiotic or chemical resistance genes, Beta-galactosidase, FLAG-, myc-hemaglutinnin-, or other epitope tagged molecules, as well as other markers of gene or nucleotide transduction. The endpoint of the assay is the detection of a synthesized protein, but could easily have been the detection of a transcribed gene product, since the assay ultimately measures the ability of D1L3 added the media/milieu overlaying the cells to block the ultimate association of an expressible plasmid with the transcriptional machinery.
Transfection Reagents and Resistance Assays. Lipofection of respective pcDNA3.1-D1 or -D3 ([…] purified with Promega Wizard Plus DNA system) was performed independently into 1-2 million HeLa cells, which produce a low background of secreted nuclease activity, when grown in DMEM with 10% FCS (LifeTech) in 6 well culture plates (Becton-Dickinson). […] Media of the transfected cells were conditioned for 36-48 hours and served as source of the respective enzymes. Nuclease activity in conditioned supernatant was measured by RDAs, zymograms and by testing activity against supercoiled pBluescript (Stratagene).
To test for the ability of the nucleases to block transfection, the media in individual wells of naive HeLa cells were replaced with conditioned media, and cells transfected with […] of N1-eGFP plasmid (Clontech) using various transfection reagents (FIG. 11) and their respective protocols. GFP expression by immunoblot directly correlated with transfection efficiency in present experiments. Thus, transfection efficiency was compared by densitometric analysis of GFP immunoblots.
GFP expression was also examined by fluorescent microscopy using a FITC filter. For microscopy, cells were fixed for 5 minutes in 4% paraformaldehyde dissolved into 1% PBS.
Antibody Reagents and Immunoblotting. After 24-36 hours, cells transfected with N1-eGFP were lysed in SDS-buffer and immunoblotted for expression with anti-GFP at 1:5000 dilution (Clontech). To confirm nearly equal protein loading per lane, anti-β-actin monoclonal antibody at 1:7,000 dilution (Sigma) were prepared. For immunoblots, […] protein was eletrophoretically separated by 12% SDS-PAGE gel, followed by electrotransfer to Immobilon-P membranes (Millipore) for expression studies. Immunoblotting was performed using ECL detection (Amersham).
Transfection efficiency was compared, wherever possible, by pixel densitometry of the scanned images using Scion Image 4.02 software.

Row | Molecule | effect on D1L3 DNASE activity (D1L3) | induction of D1L3 in macrophages (bone marrow macrophages) | BT activity of media conditioned by treated macrophages [1] | BT of HeLa cells treated with Ifn-γ or of media conditioned by them (HeLa cells)
1 | [Zn+2] [zinc] | block D1L3 DNASE activity |  |  | 
2 | O=C(O)CN(CCN(CC(=O)O)CC(=O)O)CC(=O)O [EDTA] | block D1L3 DNASE activity |  |  | 
3 | Ifn-γ: interferon-gamma (Genzyme), macrophage activator |  | inducible; also recorded: significant induction of D1L3 levels | confers BT; also recorded: Increased BT activity | neither confer nor possess a BT
